Measurements reported in patent US20250171430A1, “PYRAZOLYL COMPOUNDS AS KV7 CHANNEL ACTIVATORS” (Biohaven Therapeutics Ltd., priority 2022, published 2025).

These compounds were tested against T1, Kv7.2/7.3 (Homo sapiens, UniProt O43525+O43526) (assay: Kv7.2/7.3 Activation Assay (Thallium Flux Assay)). Conditions: hKV7.2/7.3 cell line; test compound at single concentration of 10 μM; fluorescence at 90 sec normalized to positive control (retigabine, 30 μM).
T1 construct: Kv7.2 tetracycline-induced, Kv7.3 constitutive
Assay type: cell-based
Outline: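 Single-point activity at 10 μM (0.1% DMSO, HEPES-buffered saline, pH 7.4) was scored from fluorescence at 90 s relative to 30 μM retigabine. Categories were none <0.15, moderate 0.15-0.7 and high >0.7. Thallium influx after stimulus addition was followed with FluxOR II Green dye in hKv7.2/7.3 cells, Kv7.2 expressed under overnight tetracycline (10 ng/mL) induction.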

| SMILES | Kv7.2/7.3 Activity |
| --- | --- |
| Cn1nc(NC(=O)CC2(O)CCCC2)c(C2CCC2)c1CC1CC1 [Compound 81, N-(4-cyclobutyl-5-(cyclopropylmethyl)-1-methyl-1H-pyrazol-3-yl)-2-(1-hydroxycyclopentyl)acetamide] | + (“+” Moderate Activity 0.15-0.7) |
| Cn1nc(NC(=O)CC2COC2)c(C2CCC2)c1-c1ccc(F)cc1 [Compound 85, N-(4-cyclobutyl-5-(4-fluorophenyl)-1-methyl-1H-pyrazol-3-yl)-2-(oxetan-3-yl)acetamide] | − (“−” No Activity < 0.15) |
| Cn1nc(NC(=O)CC2COC2)c(C2CCC2)c1-c1cnc(C(F)(F)F)s1 [Compound 86, N-(4-cyclobutyl-1-methyl-5-(2-(trifluoromethyl)thiazol-5-yl)-1H-pyrazol-3-yl)-2-(oxetan-3-yl)acetamide] | − (“−” No Activity < 0.15) |
| Cn1nc(NC(=O)Cc2ccc(F)c(F)c2)c(C2CCC2)c1-c1ccc(F)cc1 [Compound 91, N-(4-cyclobutyl-5-(4-fluorophenyl)-1-methyl-1H-pyrazol-3-yl)-2-(3,4-difluorophenyl)acetamide] | + (“+” Moderate Activity 0.15-0.7) |
| Cn1nc(NC(=O)Cc2ccc(F)c(F)c2)c(C2CCC2)c1-c1ccc(OC(F)(F)F)cc1 [Compound 92, N-(4-cyclobutyl-1-methyl-5-(4-(trifluoromethoxy)phenyl)-1H-pyrazol-3-yl)-2-(3,4-difluorophenyl)acetamide] | ++ (“++” High Activity ≥ 0.7) |
| Cc1c(C2CCC2)c(NC(=O)CC2CC(F)(F)C2)nn1Cc1ccc(F)cc1 [Compound 93, N-(4-cyclobutyl-1-(4-fluorobenzyl)-5-methyl-1H-pyrazol-3-yl)-2-(3,3-difluorocyclobutyl)acetamide] | + (“+” Moderate Activity 0.15-0.7) |
| Cc1c(C2CCC2)c(NC(=O)CC(C)(C)C(F)(F)F)nn1Cc1ccc(F)cc1 [Compound 94, N-(4-cyclobutyl-1-(4-fluorobenzyl)-5-methyl-1H-pyrazol-3-yl)-4,4,4-trifluoro-3,3-dimethylbutanamide] | − (“−” No Activity < 0.15) |
| Cn1nc(NC(=O)CC(C)(C)C(F)(F)F)c(C2CCC2)c1-c1ccc(Cl)s1 [Compound 96, N-(5-(5-chlorothiophen-2-yl)-4-cyclobutyl-1-methyl-1H-pyrazol-3-yl)-4,4,4-trifluoro-3,3-dimethylbutanamide] | ++ (“++” High Activity ≥ 0.7) |
| Cn1nc(NC(=O)C[C@H]2CC2(C)C)c(C2CCC2)c1-c1ccc(F)cc1 [Compound 100, (R)-N-(4-cyclobutyl-5-(4-fluorophenyl)-1-methyl-1H-pyrazol-3-yl)-2-(2,2-dimethylcyclopropyl)acetamide] | ++ (“++” High Activity ≥ 0.7) |
| Cn1nc(NC(=O)CC2CCCC2)c(C2CCC2)c1-c1ccc(F)cc1 [Compound 102, N-(4-cyclobutyl-5-(4-fluorophenyl)-1-methyl-1H-pyrazol-3-yl)-2-cyclopentylacetamide] | ++ (“++” High Activity ≥ 0.7) |
| Cn1nc(NC(=O)C2(c3ccccc3)CC2)c(C2CCC2)c1-c1ccc(F)cc1 [Compound 103, N-(4-cyclobutyl-5-(4-fluorophenyl)-1-methyl-1H-pyrazol-3-yl)-1-phenylcyclopropane-1-carboxamide] | + (“+” Moderate Activity 0.15-0.7) |
| CC[C@H](C)CC(=O)Nc1nn(C)c(-c2ccc(F)cc2)c1C1CCC1 [Compound 104, (S)-N-(4-cyclobutyl-5-(4-fluorophenyl)-1-methyl-1H-pyrazol-3-yl)-3-methylpentanamide] | ++ (“++” High Activity ≥ 0.7) |
| Cn1nc(NC(=O)COC(C)(C)C)c(C2CCC2)c1-c1ccc(F)cc1 [Compound 108, 2-(tert-butoxy)-N-(4-cyclobutyl-5-(4-fluorophenyl)-1-methyl-1H-pyrazol-3-yl)acetamide] | + (“+” Moderate Activity 0.15-0.7) |
| Cn1nc(NC(=O)[C@H]2CC2(C)C)c(C2CCC2)c1-c1ccc(F)cc1 [Compound 110, (S)-N-(4-cyclobutyl-5-(4-fluorophenyl)-1-methyl-1H-pyrazol-3-yl)-2,2-dimethylcyclopropane-1-carboxamide] | ++ (“++” High Activity ≥ 0.7) |
| Cn1nc(NC(=O)[C@H]2C[C@]2(C)C(F)F)c(C2CCC2)c1-c1ccc(F)cc1 [Compound 111, (1S,2S)-N-(4-cyclobutyl-5-(4-fluorophenyl)-1-methyl-1H-pyrazol-3-yl)-2-(difluoromethyl)-2-methylcyclopropane-1-carboxamide] | ++ (“++” High Activity ≥ 0.7) |

More lines, now with the values ahead:

| Kv7.2/7.3 Activity | SMILES |
| --- | --- |
| ++ (“++” High Activity ≥ 0.7) | Cn1nc(NC(=O)CC2(C(F)(F)F)CCC2)c(C2CCC2)c1-c1ccc(OC(F)(F)F)cc1 [Compound 82, N-(4-cyclobutyl-1-methyl-5-(4-(trifluoromethoxy)phenyl)-1H-pyrazol-3-yl)-2-(1-(trifluoromethyl)cyclobutyl)acetamide] |
| ++ (“++” High Activity ≥ 0.7) | Cn1nc(NC(=O)CC2(C(F)(F)F)CCC2)c(C2CCC2)c1-c1ccc(F)cc1 [Compound 83, N-(4-cyclobutyl-5-(4-fluorophenyl)-1-methyl-1H-pyrazol-3-yl)-2-(1-(trifluoromethyl)cyclobutyl)acetamide] |
| − (“−” No Activity < 0.15) | Cn1nc(NC(=O)CC2COC2)c(C2CCC2)c1-c1ccc(OC(F)(F)F)cc1 [Compound 84, N-(4-cyclobutyl-1-methyl-5-(4-(trifluoromethoxy)phenyl)-1H-pyrazol-3-yl)-2-(oxetan-3-yl)acetamide] |
| + (“+” Moderate Activity 0.15-0.7) | Cn1nc(NC(=O)CC2(O)CCC2)c(C2CCC2)c1-c1ccc(OC(F)(F)F)cc1 [Compound 87, N-(4-cyclobutyl-1-methyl-5-(4-(trifluoromethoxy)phenyl)-1H-pyrazol-3-yl)-2-(1-hydroxycyclobutyl)acetamide] |
| ++ (“++” High Activity ≥ 0.7) | Cn1nc(NC(=O)CC2(C(F)(F)F)CCC2)c(C2CCC2)c1C1(C(F)(F)F)CCC1 [Compound 88, N-(4-cyclobutyl-1-methyl-5-(1-(trifluoromethyl)cyclobutyl)-1H-pyrazol-3-yl)-2-(1-(trifluoromethyl)cyclobutyl)acetamide] |
| ++ (“++” High Activity ≥ 0.7) | Cn1nc(NC(=O)CC2(C(F)(F)F)CC2)c(C2CCC2)c1C1(C(F)(F)F)CCC1 [Compound 89, N-(4-cyclobutyl-1-methyl-5-(1-(trifluoromethyl)cyclobutyl)-1H-pyrazol-3-yl)-2-(1-(trifluoromethyl)cyclopropyl)acetamide] |
| + (“+” Moderate Activity 0.15-0.7) | Cn1nc(NC(=O)Cc2ccc(F)c(F)c2)c(C2CCC2)c1C1(C(F)(F)F)CCC1 [Compound 90, N-(4-cyclobutyl-1-methyl-5-(1-(trifluoromethyl)cyclobutyl)-1H-pyrazol-3-yl)-2-(3,4-difluorophenyl)acetamide] |
| − (“−” No Activity < 0.15) | Cc1c(C2CCC2)c(NC(=O)CC2(C(F)(F)F)CC2)nn1Cc1ccc(F)cc1 [Compound 95, N-(4-cyclobutyl-1-(4-fluorobenzyl)-5-methyl-1H-pyrazol-3-yl)-2-(1-(trifluoromethyl)cyclopropyl)acetamide] |
| ++ (“++” High Activity ≥ 0.7) | Cn1nc(NC(=O)CC(C)(C)C(F)(F)F)c(C2CCC2)c1-c1ccc(F)cc1F [Compound 97, N-(4-cyclobutyl-5-(2,4-difluorophenyl)-1-methyl-1H-pyrazol-3-yl)-4,4,4-trifluoro-3,3-dimethylbutanamide] |
| ++ (“++” High Activity ≥ 0.7) | Cn1nc(NC(=O)CC2CC(F)(F)C2)c(C2CCC2)c1-c1ccc(F)cc1F [Compound 98, N-(4-cyclobutyl-5-(2,4-difluorophenyl)-1-methyl-1H-pyrazol-3-yl)-2-(3,3-difluorocyclobutyl)acetamide] |
| ++ (“++” High Activity ≥ 0.7) | Cn1nc(NC(=O)C[C@H]2CC2(F)F)c(C2CCC2)c1-c1ccc(F)cc1 [Compound 99, (S)-N-(4-cyclobutyl-5-(4-fluorophenyl)-1-methyl-1H-pyrazol-3-yl)-2-(2,2-difluorocyclopropyl)acetamide] |
| ++ (“++” High Activity ≥ 0.7) | Cn1nc(NC(=O)CCC(F)(F)C(F)(F)F)c(C2CCC2)c1-c1ccc(F)cc1 [Compound 101, N-(4-cyclobutyl-5-(4-fluorophenyl)-1-methyl-1H-pyrazol-3-yl)-4,4,5,5,5-pentafluoropentanamide] |
| ++ (“++” High Activity ≥ 0.7) | Cn1nc(NC(=O)CC2(C(F)(F)F)CC2)c(C2CCC2)c1-c1ccccc1F [Compound 105, N-(4-cyclobutyl-5-(2-fluorophenyl)-1-methyl-1H-pyrazol-3-yl)-2-(1-(trifluoromethyl)cyclopropyl)acetamide] |
| ++ (“++” High Activity ≥ 0.7) | Cn1nc(NC(=O)CC2CC(F)(F)C2)c(C2CCC2)c1-c1ccccc1F [Compound 106, N-(4-cyclobutyl-5-(2-fluorophenyl)-1-methyl-1H-pyrazol-3-yl)-2-(3,3-difluorocyclobutyl)acetamide] |
| ++ (“++” High Activity ≥ 0.7) | Cn1nc(NC(=O)CC2(C(F)(F)F)CC2)c(C2CCC2)c1-c1ccc(F)cc1F [Compound 107, N-(4-cyclobutyl-5-(2,4-difluorophenyl)-1-methyl-1H-pyrazol-3-yl)-2-(1-(trifluoromethyl)cyclopropyl)acetamide] |
| ++ (“++” High Activity ≥ 0.7) | Cn1nc(NC(=O)CC(C(F)(F)F)C(F)(F)F)c(C2CCC2)c1-c1ccc(F)cc1 [Compound 109, N-(4-cyclobutyl-5-(4-fluorophenyl)-1-methyl-1H-pyrazol-3-yl)-4,4,4-trifluoro-3-(trifluoromethyl)butanamide] |
